Data published in patent US20250241944A1 (CALIFORNIA INSTITUTE OF TECHNOLOGY, priority 2023, published 2025).
“Also recorded” adds a separate entry of the source. Read-outs that look alike come from different tables or passages of the source.

Assays:
[1] = tested on: WT Pseudomonas aeruginosa UCBPP-PA14; assay: Antibiotic treatment assay with viable plate counts (percent survival / log killing); conditions: for log killing: OD500=2, chlorate 10 mM, tobramycin 31.25 μg/mL
[2] = tested on: RPA (Riverside Pseudomonas aeruginosa) planktonic cultures; assay: In vitro planktonic drug treatment, viable cell counts; assay type: cell-based; conditions: 24 h, ciprofloxacin 10 μg/mL, sodium chlorate 10 mM
RPA aggregate biofilms = conditions: ABBA, 24 h; final 10 μg/mL ciprofloxacin, 10 mM sodium chlorate
Procedure: (§1) All experiments used Luria-Bertani (LB; Difco) as the growth medium, supplemented with KNO3 as specified. Aerobic liquid cultures were incubated at 37° C. with shaking at 250 RPM. Anaerobic work was conducted in an anaerobic glove box with a 95% N2-5% H2 atmosphere, and anaerobic cultures were incubated at 37° C.
For in vitro biofilm drug studies, agar block biofilm assays (ABBAs) were used. Briefly, to set up ABBA, overnight RPA cultures were diluted to OD500=0.001 into cooled molten agar (44° C.) composed of LB with 5 mM KNO3 and 1% agar. Before the agar solidified, 500 μL of the cell-agar suspension was added to 2-mL Eppendorf tubes, after which samples were allowed to solidify. Eppendorf tubes were incubated at 37° C. for 24 h to allow cells to grow as aggregate biofilms suspended within the agar medium. After this growth incubation, ABBA samples were washed twice with 200 μL of PBS to remove cell growth that was not suspended within the agar. […] Drug treatments were incubated for 24 h at 37° C. To determine viable cell counts, ABBA samples were first homogenized by adding 300 μL of PBS to each sample and homogenizing on speed 3 with a Bio-Gen PRO200 Homogenizer (PRO Scientific).

[3] = tested on: RPA Anar strain (AnarGHJI); conditions: 24 h
Procedure: as §1
For in vitro planktonic drug treatment studies, overnight RPA cultures were grown aerobically in LB broth supplemented with 40 mM KNO3. […] Cell resuspensions were added to 96-well plates (150 μL per well), and one 96-well plate was incubated statically (not shaking) at 37° C. at ambient oxygen, while a duplicate 96-well plate was incubated statically at 37° C. under anoxia (anaerobic glove box). Drug treatments were incubated for 24 h, after which cultures were serially diluted for viable cell counts. Viable cell counts were performed by serially diluting samples in phosphate-buffered saline (PBS). […] After incubation at 37° C., colonies were counted to quantify colony-forming units (CFU) per milliliter for each culture. Percent survival was calculated for each condition by dividing CFU/mL values from a drug treated sample by the average CFU/mL value from control (no drug) samples and multiplying by 100. […]
For in vitro biofilm drug studies, agar block biofilm assays (ABBAs) were used. […] Viable cell counts and percent survival were calculated for ABBA samples as described above.

[4] = tested on: RPA-infected chronic wounds
Procedure: A diabetic mouse model (db/db−/−) of chronic wounds that mimics chronic wounds in humans was used to investigate wound healing.
Wounds were treated daily between 10 and 40 days postwounding.
The quality of wound healing in treated mice was characterized by performing histological and immunofluorescence analyses on day 40 wounds (FIG. 18 Panel A).
To distinguish between and visualize the distribution of collagen I and collagen III in the granulation tissue, the wounds were also stained with Picrosirius Red (PSR). […] Collagen IV immunolabeling was used to show whether basal lamina under the epidermis was present, an important indicator of proper connectivity of the epithelium with the underlying dermis. […] Keratin 14/16 is a cytokeratin found in proliferating keratinocytes of the epidermis and is observed in the cytoplasm surrounding the nucleus.
Blood vessel development during wound healing is another indicator of proper healing. The number of microvessels present in the granulation tissue was quantified by immunolabeling the wound tissue with a-smooth muscle actin (aSMA), a protein that is present in the cells surrounding blood vessels.

[5] = tested on: RPA-infected chronic wounds; conditions: diabetic mouse model, reference [227]; cited from earlier work
[6] = mammals lack Nar; cited from earlier work
P. aeruginosa biofilms = conditions: via Nar activity, reference [32]; cited from earlier work
[7] = humans; cited from earlier work
[8] = 24 h, hypoxic vs oxic conditions
[9] = five drugs of the study, hypoxic cultures
[10] = hypoxic conditions (static), 24 h, ciprofloxacin 1 μg/mL, ceftazidime 10 μg/mL

Compound: colistin
- P. aeruginosa viability after colistin combined with tobramycin, ciprofloxacin or ceftazidime [1]: below our detection limit
- O2-dependence of efficacy (hypoxic compared to oxic) [1, 8]: only marginally less effective at killing hypoxic cultures
- capacity for synergy across drug classes [1, 9]: wide-ranging synergistic interactions; also recorded: broad capacity for synergy
- synergy in antibiotic-antibiotic combinations ([1]; hypoxic conditions, 24 h): displays synergistic interactions; also recorded: synergized
- synergy of chlorate-antibiotic combination ([1]; hypoxic conditions, 24 h): synergizing

Compound: NC[C@H]1O[C@H](O[C@H]2[C@H](O)[C@@H](O[C@H]3O[C@H](CO)[C@@H](O)[C@H](N)[C@H]3O)[C@H](N)C[C@@H]2N)[C@H](N)C[C@@H]1O [tobramycin]
- capacity for synergy across drug classes [1]: do not
- synergy of chlorate-antibiotic combination [1]: synergizing
- O2-dependence of efficacy (hypoxic compared to oxic) [1, 8]: substantially less toxic
- toxicity / killing of P. aeruginosa cultures (in words) ([1]; anoxic conditions, 24 h): some toxicity
- toxicity / killing of P. aeruginosa cultures (in words) ([1]; oxic conditions, 24 h): most effective
- toxicity / killing of P. aeruginosa cultures (in words) ([1]; oxic conditions, 24 h, listed as Tobramycin): below our detection limit

Compound: O=C(O)c1cn(C2CC2)c2cc(N3CCNCC3)c(F)cc2c1=O [ciprofloxacin]
- susceptibility of planktonic cultures (in words) ([2]; anoxic (anaerobic glove box)): highly susceptible
- susceptibility of planktonic cultures (in words) ([2]; oxic (static, ambient oxygen)): highly susceptible
- killing / susceptibility of aggregate biofilms (in words) (RPA aggregate biofilms): susceptible to ciprofloxacin but show greater survival than planktonic cells
- O2-dependence of efficacy (hypoxic compared to oxic) [1]: substantially less toxic
- log killing [1, 10]: ~1.5 log
- synergy of chlorate-antibiotic combination ([1]; hypoxic conditions, 24 h): synergizing

Compound: [O-][Cl+2]([O-])O [chlorate, sodium chlorate]
- susceptibility of planktonic cultures (in words) ([2]; anoxic (anaerobic glove box)): highly susceptible
- susceptibility of planktonic cultures (in words) ([2]; oxic (static, ambient oxygen)): highly tolerant
- susceptibility of Nar-lacking strain (in words) [3]: highly resistant
- effectiveness at promoting wound healing, comparison between treatments ([4]; day 40): as effective as ciprofloxacin
- PSR staining: collagen I and collagen III in the granulation tissue ([4]; day 40 healed wounds): staining of both collagen I and collagen III
- collagen IV immunolabeling: basement membrane under the epithelium ([4]; day 40 healed wounds): formed a basement membrane
- aSMA immunolabeling: microvessels in the granulation tissue ([4]; day 40 wounds): showed microvessels
- quality of the wound tissue ([4]; day 40 wounds, histology): significantly improved
- healing of P. aeruginosa-infected chronic wounds by topical treatment [5]: supports the healing
- toxicity against mammals [6]: low toxicity
- killing of O2-limited, antibiotic-tolerant biofilm populations (P. aeruginosa biofilms): kills
- estimated lethal oral dose [7]: 20-35 grams
- log killing ([1]; anoxic conditions (anaerobic glove box), 24 h): ~2.5 log
- toxicity / killing of P. aeruginosa cultures (in words) ([1]; anoxic conditions, 24 h): most effective; also recorded: some toxicity
- toxicity / killing of P. aeruginosa cultures (in words) ([1]; anoxic conditions, 24 h, listed as Chlorate): most toxic
- capacity for synergy across drug classes [1, 9]: wide-ranging synergistic interactions; also recorded: broad capacity for synergy
- log killing [1, 10]: 0.2 log
- toxicity / killing of P. aeruginosa cultures (in words) ([1]; hypoxic conditions, 24 h): little-to-no killing; also recorded: remain viable
- toxicity / killing of P. aeruginosa cultures (in words) ([1]; hypoxic conditions, 24 h, listed as Chlorate): nontoxic
- toxicity / killing of P. aeruginosa cultures (in words) ([1]; oxic conditions, 24 h): nontoxic

Compound: CC(C)(O/N=C(\C(=O)N[C@@H]1C(=O)N2C(C(=O)[O-])=C(C[n+]3ccccc3)CS[C@H]12)c1csc(N)n1)C(=O)O [ceftazidime]
- O2-dependence of efficacy (hypoxic compared to oxic) [1]: does not exhibit O2-dependent efficacy
- reduction of the effective (lethal, toxic) ceftazidime dose by chlorate addition [1]: > 100 fold
- capacity for synergy across drug classes [1, 9]: do not
- synergy of chlorate-antibiotic combination ([1]; hypoxic conditions, 24 h): synergizing
- toxicity / killing of P. aeruginosa cultures (in words) ([1]; hypoxic conditions, 24 h): completely resistant; also recorded: remain viable
- ceftazidime concentrations to which P. aeruginosa is resistant ([1]; hypoxic cultures, 24 h, ceftazidime alone): ≤ 1,000 μg/mL
- toxicity / killing of P. aeruginosa cultures (in words) ([1]; oxic conditions, 24 h): completely resistant
